{
  "source": "patent US11903912B2",
  "about": "“Composition for preventing and treating breast cancer including selenopsammaplin A as active ingredients” (Seoul National University R & DB Foundation, priority 2019, dated 2024)",
  "key": {"[1]": {"system": "A549 human lung cancer cells", "experiment": "SRB cytotoxicity test, A549", "assay_type": "cell-based", "settings": "SRB assay, cultured 3 days", "method": "A cytotoxicity test was performed using synthesized selenopsammaplin A and derivatives thereof (Lee S K et al […] Chem Biol Interact 115:215-28).\nThe cytotoxicity test was performed on a total of five representative cancer cell lines. The cytotoxicity of each compound was measured using an SRB assay method (human lung cancer cells, A549; human colon cancer cells, HCT116; human breast cancer cells, MDA-MB231; human liver cancer cells, SK-HEP-1; human gastric cancer cells, SNU638).\nEach cell line was sub-cultured once or twice using Roswell Park Memorial Institute (RPMI) medium 1640 (RPMI 1640) or Dulbecco's Modified Eagle's Medium (DMEM) containing 10% fetal bovine serum (FBS) inactivated by heat, 100 units/mL of penicillin, 100 μg/mL of streptomycin, and 250 ng/mL of amphotericin B at 37° C. for 1 week under a 5% CO2 condition. All cells were […] in liquid nitrogen, and then passaged three or more times to be used in the experiment. The effects of compounds on cell growth were measured using a sulforhodamine B (SRB) method (Lee et al (1998) Chemico-Biol Interact 115:215-228).\nSpecifically, each human cancer cell line used in the present invention was sub-cultured in an RPMI medium containing 10% FBS, 1% PSF, and the like, and 10 μl of a sample dissolved in 10% DMSO and 190 μl (4-5×10^4 cells/ml) of the cell suspension were added to each well of a 96-well plate and cultured for 3 days. 190 μl of the cell suspension was added to at least 16 wells and cultured for 30 minutes, and used as a zero-day control. The cultured cells were fixed with 10% trichloroacetic acid (TCA) and then stained with an SRB solution, and the staining solution was dissolved with 10 mM Tris-base, and then absorbance at 515 nm was measured. Using the case of culturing in 10% DMSO as a control, cell viability according to each test material treatment was measured using Equation 1 below. Etoposide was used as a positive control. % Viability=(OD(sample)−OD(0-day))/(OD(10% DMSO)−OD(0-day))×100 [Equation 1]\nAssuming that a control not-treated with the sample was set at 100%, the values of sample-treated groups were expressed as percentage with respect to the control, and each test material treatment results were obtained as the mean±SEM of two or three tests. The IC50 value is the concentration of the test material for a 50% survival rate."}, "DOT1L [2]": {"target": "T1, DOT1L (Homo sapiens, UniProt Q8TEK3)", "T1 construct": "based on the finding that DOT1L was overexpressed in the breast cancer cell line; endogenous in cells", "T1 sequence (Q8TEK3 whole entry)": "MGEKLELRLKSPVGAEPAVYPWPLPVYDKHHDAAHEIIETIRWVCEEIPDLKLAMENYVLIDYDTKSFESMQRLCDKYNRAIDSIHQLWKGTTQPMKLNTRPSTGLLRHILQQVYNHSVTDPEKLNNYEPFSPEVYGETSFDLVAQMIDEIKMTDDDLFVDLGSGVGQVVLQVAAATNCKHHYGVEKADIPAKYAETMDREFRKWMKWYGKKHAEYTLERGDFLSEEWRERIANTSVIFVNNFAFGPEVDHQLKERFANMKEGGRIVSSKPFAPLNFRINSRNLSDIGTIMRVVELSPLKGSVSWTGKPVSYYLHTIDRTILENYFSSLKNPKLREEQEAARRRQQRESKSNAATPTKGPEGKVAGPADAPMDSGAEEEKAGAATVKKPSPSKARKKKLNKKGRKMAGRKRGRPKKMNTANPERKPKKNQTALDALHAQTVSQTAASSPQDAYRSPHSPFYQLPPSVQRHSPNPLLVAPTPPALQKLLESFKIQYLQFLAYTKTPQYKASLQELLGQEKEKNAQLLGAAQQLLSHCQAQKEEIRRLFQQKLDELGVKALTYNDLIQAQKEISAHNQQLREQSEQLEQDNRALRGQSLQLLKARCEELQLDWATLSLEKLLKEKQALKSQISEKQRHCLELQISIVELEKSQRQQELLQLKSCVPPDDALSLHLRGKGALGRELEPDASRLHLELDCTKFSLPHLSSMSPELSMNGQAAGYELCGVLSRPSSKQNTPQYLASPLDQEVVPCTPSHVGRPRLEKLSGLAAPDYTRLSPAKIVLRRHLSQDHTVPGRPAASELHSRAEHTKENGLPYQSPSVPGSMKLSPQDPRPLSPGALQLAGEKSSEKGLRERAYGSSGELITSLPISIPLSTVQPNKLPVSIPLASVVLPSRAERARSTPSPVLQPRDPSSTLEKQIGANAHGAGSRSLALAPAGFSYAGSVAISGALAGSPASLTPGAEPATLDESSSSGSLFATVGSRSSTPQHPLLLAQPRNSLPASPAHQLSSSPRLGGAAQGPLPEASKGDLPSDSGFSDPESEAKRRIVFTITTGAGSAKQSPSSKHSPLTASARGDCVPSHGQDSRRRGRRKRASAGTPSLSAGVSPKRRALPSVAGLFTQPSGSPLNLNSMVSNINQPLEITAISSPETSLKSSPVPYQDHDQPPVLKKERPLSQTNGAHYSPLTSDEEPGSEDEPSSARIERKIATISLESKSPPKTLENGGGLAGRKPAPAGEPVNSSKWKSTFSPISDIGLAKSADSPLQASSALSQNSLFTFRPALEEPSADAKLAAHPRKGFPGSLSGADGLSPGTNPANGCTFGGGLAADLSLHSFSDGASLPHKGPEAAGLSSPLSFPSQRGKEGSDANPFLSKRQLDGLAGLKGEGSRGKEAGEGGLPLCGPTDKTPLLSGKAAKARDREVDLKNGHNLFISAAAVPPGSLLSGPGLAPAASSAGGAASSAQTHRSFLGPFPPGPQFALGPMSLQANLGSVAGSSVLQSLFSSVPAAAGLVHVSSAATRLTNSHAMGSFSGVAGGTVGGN", "experiment": "Inhibition of DOT1L methylation (H3K79) by western blotting", "assay_type": "cell-based", "settings": "breast cancer cell line, FIG. 3", "text": "As confirmed in Example 1, based on the finding that DOT1L was overexpressed in the breast cancer cell line, the effects of the derivatives of the present invention on the methylation of the histone 3 lysine 79 (H3K79) residue, which is an in-vivo target of DOT1L, were examined by western blotting."}, "DOT1L [3]": {"target": "T1, DOT1L", "experiment": "Target selectivity for H3K79 residue in MDA-MB-231 cell line, western blot", "assay_type": "cell-based", "method": "Compound 2 (X=ph) was selected from among selenopsammaplin A and the derivatives thereof, and in order to confirm the selectivity thereof for the H3K79 residue, which is an intracellular DOT1L target, an experiment was performed as follows. The triple-negative breast cancer cell line MDA-MB-231 was spread at a concentration of 2×10^6 cells/well on a DMEM medium containing 10% FBS in a 6-well plate, cultured at 37° C. for 24 hours under a 5% CO2 condition, and then washed twice with phosphate-buffered saline (PBS). Attached cells were recovered and washed twice with PBS, and then boiling 2× sample loading buffer (250 mM Tris-HCl (pH 6.8), 4% SDS, 10% glycerol, 0.006% bromophenol blue, 2% β-mercaptoethanol, 50 mM sodium fluoride, and 5 mM sodium orthovanadate) was added thereto to disrupt the cells and the cells were left at 100° C. for 10 minutes. After cooling, the cells were stored at […] and […] at 37° C. immediately before use in protein quantification and electrophoresis. 10 μg of proteins were electrophoresed at 100 V for 2 hours using a 12% SDS-polyacrylamide gel (#456-1036, Bio-Rad, Hercules, Calif.). […] These were quantified using ImageJ software and the results thereof are illustrated in FIG. 4B."}, "breast tumors": {"system": "breast tumors", "experiment": "Breast tumor growth in xenograft mouse model", "assay_type": "in vivo, nude BALB/c mice", "method": "Breast cancer cells were injected into fat pads of nude BALB/c mice (8-week-old, female). When the tumor size reached about 200 mm^3, the compound was injected intraperitoneally three times a week. The tumor volume was calculated by the following equation: [volume […]=(L×W2)/2] and illustrated in FIG. 8A. 38 days after administration began, the mice were sacrificed and tumors were extracted, and the weights thereof were measured and illustrated in FIG. 8B. The body weights of the mice measured during the experiment are illustrated in FIG. 8C."}},
  "data": [
    {"smiles": "O=C(NCC[Se][Se]CCNC(=O)/C(Cc1ccccc1)=N/O)/C(Cc1ccccc1)=N/O", "note": "[Compound 2, (2E,2′E)-N,N′-(diselenediylbis(ethane-2,1-diyl))bis(2-(hydroxyimino)-3-phenylpropanamide)]", "values": [
      {"measurement": "IC50", "setting": "[1]", "result": 80, "unit": "nM"},
      {"measurement": "inhibitory effect on H3K79 methylation", "setting": "DOT1L [2]", "result": "excellent"},
      {"measurement": "methylation of other histone 3 residues", "setting": "DOT1L [3]; MDA-MB-231, H3K4me2, H3K27me2, H3K36me2 western blot, FIG. 4", "result": "without changing"},
      {"measurement": "methylation of H3K79 (residue 79)", "setting": "DOT1L [3]; MDA-MB-231, H3K79me2 western blot, FIG. 4, compared to psammaplin A", "result": "specifically suppressed"},
      {"measurement": "tumor weight", "setting": "breast tumors; 38 days after administration began, compared to control, psammaplin A and paclitaxel groups", "result": "remarkably reduced"},
      {"measurement": "tumor volume", "setting": "breast tumors; intraperitoneally three times a week, compared to the control", "result": "remarkably reduced"},
      {"measurement": "body weights of the mice", "setting": "breast tumors; measured during the xenograft experiment", "result": "not affected"}
    ]}
  ]
}
